The test system of the assay is Bmi-1. The assay is described as follows: Sandwich ELISA Assay (Bmi-1 ELISA in HT-1080 cells). The class given is cell-based, human. The gist of the method: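 Lysate Bmi-1 was quantified against a recombinant GST-Bmi-1 standard (0-8000 pg/mL) by sandwich ELISA read at OD450 with OD570 reference. The ELISA used mouse monoclonal capture, rabbit anti-Bmi-1, HRP anti-rabbit IgG and TMB. Before lysis, HT-1080 cells seeded at 8000/well were exposed to compounds for 40-48 h at 37°C with 0.5% final DMSO.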
Compound `CCOc1ccc(Nc2nccc(-c3c(C)nc4ncccn34)n2)cc1` [Cpd 116, N-(4-ethoxyphenyl)-4-(2-methylimidazo[1,2-a]pyrimidin-3-yl)pyrimidin-2-amine] showed a 50% inhibitory concentration (IC50) of under 500 nM.

In turn, `CC(=O)c1ccc(Nc2nccc(-c3c(C)nc4ccccn34)n2)cc1` [Cpd 117, 1-(4-{[4-(2-methylimidazo[1,2-a]pyridin-3-yl)pyrimidin-2-yl]amino}phenyl)ethanone] gave an IC50 of under 500 nM.

For the compound `Cc1nc2ccccn2c1-c1ccnc(Nc2cccc(N(C)C)c2)n1` [Cpd 118, N,N-dimethyl-N′-[4-(2-methylimidazo[1,2-a]pyridin-3-yl)pyrimidin-2-yl]benzene-1,3-diamine], the half-maximal inhibitory concentration (IC50) was under 500 nM.

As for `Cc1nc2ccccn2c1-c1ccnc(Nc2ccc(I)cc2)n1` [Cpd 119, N-(4-iodophenyl)-4-(2-methylimidazo[1,2-a]pyridin-3-yl)pyrimidin-2-amine], the IC50 was under 500 nM.

Compound `Cc1nc2ncccn2c1-c1ccnc(Nc2ccc(I)cc2)n1` [Cpd 120, N-(4-iodophenyl)-4-(2-methylimidazo[1,2-a]pyrimidin-3-yl)pyrimidin-2-amine] showed an IC50 of under 500 nM.

Regarding `Cc1nc2ncccn2c1-c1nc(Nc2ccc(Br)cc2)sc1C` [Cpd 121, N-(4-bromophenyl)-5-methyl-4-(2-methylimidazo[1,2-a]pyrimidin-3-yl)-1,3-thiazol-2-amine], the IC50 was under 500 nM.

In turn, `Cc1nc2ncccn2c1-c1nc(Nc2ccc(I)cc2)sc1C` [Cpd 122, N-(4-iodophenyl)-5-methyl-4-(2-methylimidazo[1,2-a]pyrimidin-3-yl)-1,3-thiazol-2-amine] returned an IC50 of under 500 nM.

The compound `Cc1nc2ccccn2c1-c1ccnc(Nc2ccc3c(c2)OCO3)n1` [Cpd 123, N-(1,3-benzodioxol-5-yl)-4-(2-methylimidazo[1,2-a]pyridin-3-yl)pyrimidin-2-amine] registered a half-inhibitory concentration (IC50) of under 500 nM.

Compound `Cc1nc2ncccn2c1-c1ccnc(Nc2ccc3c(c2)OCO3)n1` [Cpd 124, N-(1,3-benzodioxol-5-yl)-4-(2-methylimidazo[1,2-a]pyrimidin-3-yl)pyrimidin-2-amine] registered an IC50 of under 500 nM.

On to `Cc1nc2ncccn2c1-c1ccnc(N(C)c2ccc(I)cc2)n1` [Cpd 125, N-(4-iodophenyl)-N-methyl-4-(2-methylimidazo[1,2-a]pyrimidin-3-yl)pyrimidin-2-amine], for which the IC50 is under 500 nM.

In the case of `Cc1nc2ncccn2c1-c1ccnc(Nc2ccc(Br)cc2)n1` [Cpd 126, N-(4-bromophenyl)-4-(2-methylimidazo[1,2-a]pyrimidin-3-yl)pyrimidin-2-amine], the half-maximal inhibitory concentration (IC50) was under 500 nM.

On to `Cc1nc2ccccn2c1-c1ccnc(Nc2cccc(Br)c2)n1` [Cpd 127, N-(3-bromophenyl)-4-(2-methylimidazo[1,2-a]pyridin-3-yl)pyrimidin-2-amine], for which the IC50 was under 500 nM.

In turn, `Cc1nc2ccccn2c1-c1ccnc(Nc2ccc(N(C)C)cc2)n1` [Cpd 129, N,N-dimethyl-N′-[4-(2-methylimidazo[1,2-a]pyridin-3-yl)pyrimidin-2-yl]benzene-1,4-diamine] yielded a concentration for half-maximal inhibition (IC50) of under 500 nM.

`CCN(CC)c1ccc(Nc2nccc(-c3c(C)nc4ccccn34)n2)cc1` [Cpd 130, N,N-diethyl-N′-[4-(2-methylimidazo[1,2-a]pyridin-3-yl)pyrimidin-2-yl]benzene-1,4-diamine] displayed an IC50 of under 500 nM.

On to `CC(=O)c1ccc(Nc2nccc(-c3c(C)nc4ncccn34)n2)cc1` [Cpd 131, 1-(4-{[4-(2-methylimidazo[1,2-a]pyrimidin-3-yl)pyrimidin-2-yl]amino}phenyl)ethanone], for which the half-maximal inhibitory concentration (IC50) was under 500 nM.

`Cc1nc2ccc(Cl)cn2c1-c1csc(Nc2ccc(Br)cc2Cl)n1` [Cpd 132, N-(4-bromo-2-chlorophenyl)-4-(6-chloro-2-methylimidazo[1,2-a]pyridin-3-yl)-1,3-thiazol-2-amine] registered a half-inhibitory concentration (IC50) of under 500 nM.

As for `Cc1nc2ccc(Cl)cn2c1-c1csc(Nc2ccccc2)n1` [Cpd 133, 4-(6-chloro-2-methylimidazo[1,2-a]pyridin-3-yl)-N-phenyl-1,3-thiazol-2-amine], the concentration for half-maximal inhibition (IC50) is under 500 nM.

Compound `Clc1ccc2ncc(-c3csc(Nc4c(Br)cc(Br)cc4Br)n3)n2c1` [Cpd 135, 4-(6-chloroimidazo[1,2-a]pyridin-3-yl)-N-(2,4,6-tribromophenyl)-1,3-thiazol-2-amine] came in with an IC50 of under 500 nM.

Take `Clc1cc(Cl)c(Nc2nc(-c3cnc4ccc(Cl)cn34)cs2)c(Cl)c1` [Cpd 136, 4-(6-chloroimidazo[1,2-a]pyridin-3-yl)-N-(2,4,6-trichlorophenyl)-1,3-thiazol-2-amine]: the IC50 was in the range of 500 to 1000 nM.

`Cc1nc2ccccn2c1-c1ccnc(N(C)c2ccc(N(C)C)cc2)n1` [Cpd 137, N,N,N′-trimethyl-N′-[4-(2-methylimidazo[1,2-a]pyridin-3-yl)pyrimidin-2-yl]benzene-1,4-diamine] yielded an IC50 of under 500 nM.

Consider `CCN(CC)c1ccc(N(C)c2nccc(-c3c(C)nc4ccccn34)n2)cc1` [Cpd 138, N,N-diethyl-N′-methyl-N′-[4-(2-methylimidazo[1,2-a]pyridin-3-yl)pyrimidin-2-yl]benzene-1,4-diamine], for which the IC50 was under 500 nM.

`Cc1nc2ccccn2c1-c1ccnc(N(C)c2ccc3c(c2)OCO3)n1` [Cpd 139, N-(1,3-benzodioxol-5-yl)-N-methyl-4-(2-methylimidazo[1,2-a]pyridin-3-yl)pyrimidin-2-amine] displayed a concentration for half-maximal inhibition (IC50) of under 500 nM.

Regarding `Cc1nc2ncccn2c1-c1ccnc(N(C)c2ccccc2Cl)n1` [Cpd 140, N-(2-chlorophenyl)-N-methyl-4-(2-methylimidazo[1,2-a]pyrimidin-3-yl)pyrimidin-2-amine], the IC50 was under 500 nM.

With `COc1cc(C)c(Nc2nccc(-c3c(C)nc4ccccn34)n2)c(C)c1` [Cpd 141, N-(4-methoxy-2,6-dimethylphenyl)-4-(2-methylimidazo[1,2-a]pyridin-3-yl)pyrimidin-2-amine], the IC50 was under 500 nM.

In turn, `CCOc1ccc(N(C)c2nccc(-c3c(C)nc4ccccn34)n2)cc1` [Cpd 142, N-(4-ethoxyphenyl)-N-methyl-4-(2-methylimidazo[1,2-a]pyridin-3-yl)pyrimidin-2-amine] registered a 50% inhibitory concentration (IC50) of under 500 nM.

In turn, `Cc1nc2ccccn2c1-c1ccnc(N(C)c2ccc(I)cc2)n1` [Cpd 143, N-(4-iodophenyl)-N-methyl-4-(2-methylimidazo[1,2-a]pyridin-3-yl)pyrimidin-2-amine] had an IC50 of 500 to 1000 nM.

The compound `CCc1nc2ncccn2c1-c1csc(Nc2ccc(OC)cc2)n1` [Cpd 144, 4-(2-ethylimidazo[1,2-a]pyrimidin-3-yl)-N-(4-methoxyphenyl)-1,3-thiazol-2-amine] registered a 50% inhibitory concentration (IC50) of under 500 nM.

`CCc1nc2ncccn2c1-c1csc(Nc2ccc(N(C)C)cc2)n1` [Cpd 145, N′-[4-(2-ethylimidazo[1,2-a]pyrimidin-3-yl)-1,3-thiazol-2-yl]-N,N-dimethylbenzene-1,4-diamine] came in with a half-inhibitory concentration (IC50) of under 500 nM.

On to `CCc1nc2ncccn2c1-c1csc(Nc2c(Br)cc(OC)cc2Br)n1` [Cpd 146, N-(2,6-dibromo-4-methoxyphenyl)-4-(2-ethylimidazo[1,2-a]pyrimidin-3-yl)-1,3-thiazol-2-amine], for which the 50% inhibitory concentration (IC50) was under 500 nM.

`CCc1nc2ncccn2c1-c1csc(Nc2ccc(Cl)cc2)n1` [Cpd 147, N-(4-chlorophenyl)-4-(2-ethylimidazo[1,2-a]pyrimidin-3-yl)-1,3-thiazol-2-amine] came in with an IC50 of under 500 nM.

The values are drawn from patent US8680113B2, “BMI-1 protein expression modulators” (PTC Therapeutics, Inc., priority 2008, dated 2014).
